Several values for one entry are separate records, joined by “and”; a condition that tells them apart may be missing. Equal entries are not always repeated. ± gives the expanded uncertainty stated by the source.
Conditions: Crystal, Calculated from knudsen effusion weight loss

CCn1c(-c2ccccc2)cc2ccccc21 [1-ethyl-2-phenylindole]
vapor or sublimation pressure (327.18 K): 7.2e-05 ± 6e-05 kPa and 6.9e-05 ± 6e-05 kPa and 7.1e-05 ± 6e-05 kPa | vapor or sublimation pressure (329.18 K): 9.5e-05 ± 6e-05 kPa and 9.1e-05 ± 6e-05 kPa and 8.9e-05 ± 6e-05 kPa | vapor or sublimation pressure (331.09 K): 0.000115 ± 6e-05 kPa and 0.000114 ± 6e-05 kPa and 0.000119 ± 6e-05 kPa | vapor or sublimation pressure (333.18 K): 0.000144 ± 6e-05 kPa and 0.000143 ± 6e-05 kPa and 0.000145 ± 6e-05 kPa | vapor or sublimation pressure (335.18 K): 0.00019 ± 6e-05 kPa and 0.000184 ± 6e-05 kPa and 0.000192 ± 6e-05 kPa | vapor or sublimation pressure (337.19 K): 0.000239 ± 6.1e-05 kPa and 0.00024 ± 6.1e-05 kPa | vapor or sublimation pressure (339.17 K): 0.000291 ± 6.1e-05 kPa and 0.000287 ± 6.1e-05 kPa and 0.000307 ± 6.1e-05 kPa | vapor or sublimation pressure (341.17 K): 0.000379 ± 6.1e-05 kPa and 0.000368 ± 6.1e-05 kPa and 0.000387 ± 6.2e-05 kPa | vapor or sublimation pressure (343.08 K): 0.000472 ± 6.2e-05 kPa and 0.000478 ± 6.2e-05 kPa | vapor or sublimation pressure (345.16 K): 0.000624 ± 6.4e-05 kPa and 0.000605 ± 6.4e-05 kPa and 0.000625 ± 6.4e-05 kPa | vapor or sublimation pressure (347.08 K): 0.000779 ± 6.6e-05 kPa and 0.000766 ± 6.6e-05 kPa and 0.000775 ± 6.6e-05 kPa | vapor or sublimation pressure (349.08 K): 0.000974 ± 6.9e-05 kPa and 0.000987 ± 6.9e-05 kPa and 0.000986 ± 6.9e-05 kPa

Cn1c(-c2ccccc2)cc2ccccc21 [1-methyl-2-phenylindole]
vapor or sublimation pressure (331.17 K): 7.4e-05 ± 6e-05 kPa and 7.7e-05 ± 6e-05 kPa | vapor or sublimation pressure (333.17 K): 0.000104 ± 6e-05 kPa and 0.000102 ± 6e-05 kPa and 9.9e-05 ± 6e-05 kPa | vapor or sublimation pressure (335.1 K): 0.00013 ± 6e-05 kPa and 0.000126 ± 6e-05 kPa and 0.000128 ± 6e-05 kPa | vapor or sublimation pressure (337.18 K): 0.000157 ± 6e-05 kPa and 0.000154 ± 6e-05 kPa and 0.000158 ± 6e-05 kPa | vapor or sublimation pressure (339.21 K): 0.000204 ± 6e-05 kPa and 0.000197 ± 6e-05 kPa and 0.000214 ± 6e-05 kPa | vapor or sublimation pressure (341.12 K): 0.000252 ± 6.1e-05 kPa and 0.000254 ± 6.1e-05 kPa and 0.000251 ± 6.1e-05 kPa | vapor or sublimation pressure (343.17 K): 0.000316 ± 6.1e-05 kPa and 0.000308 ± 6.1e-05 kPa and 0.000323 ± 6.1e-05 kPa | vapor or sublimation pressure (345.14 K): 0.000404 ± 6.2e-05 kPa and 0.00039 ± 6.2e-05 kPa and 0.000414 ± 6.2e-05 kPa | vapor or sublimation pressure (347.08 K): 0.000497 ± 6.3e-05 kPa and 0.000501 ± 6.3e-05 kPa and 0.000494 ± 6.3e-05 kPa | vapor or sublimation pressure (349.17 K): 0.000593 ± 6.4e-05 kPa and 0.000586 ± 6.3e-05 kPa and 0.000585 ± 6.3e-05 kPa | vapor or sublimation pressure (351.21 K): 0.000772 ± 6.6e-05 kPa and 0.000745 ± 6.6e-05 kPa | vapor or sublimation pressure (353.12 K): 0.00092 ± 6.8e-05 kPa and 0.000943 ± 6.9e-05 kPa and 0.000939 ± 6.9e-05 kPa

c1ccc(-c2cc3ccccc3[nH]2)cc1 [2-phenyl-1H-indole]
vapor or sublimation pressure (360.16 K): 0.000122 ± 6e-05 kPa and 0.000119 ± 6e-05 kPa and 0.000116 ± 6e-05 kPa | vapor or sublimation pressure (362.11 K): 0.000157 ± 6e-05 kPa and 0.000149 ± 6e-05 kPa and 0.000155 ± 6e-05 kPa | vapor or sublimation pressure (364.08 K): 0.000184 ± 6e-05 kPa and 0.000182 ± 6e-05 kPa and 0.000176 ± 6e-05 kPa | vapor or sublimation pressure (366.16 K): 0.000217 ± 6e-05 kPa and 0.000214 ± 6e-05 kPa and 0.000227 ± 6.1e-05 kPa | vapor or sublimation pressure (368.13 K): 0.00027 ± 6.1e-05 kPa and 0.000262 ± 6.1e-05 kPa and 0.000278 ± 6.1e-05 kPa | vapor or sublimation pressure (370.1 K): 0.000331 ± 6.1e-05 kPa and 0.000325 ± 6.1e-05 kPa and 0.000324 ± 6.1e-05 kPa | vapor or sublimation pressure (372.16 K): 0.000392 ± 6.2e-05 kPa and 0.000393 ± 6.2e-05 kPa and 0.000412 ± 6.2e-05 kPa | vapor or sublimation pressure (374.12 K): 0.000491 ± 6.2e-05 kPa and 0.000456 ± 6.2e-05 kPa and 0.0005 ± 6.3e-05 kPa | vapor or sublimation pressure (376.1 K): 0.00059 ± 6.4e-05 kPa and 0.000574 ± 6.3e-05 kPa and 0.000592 ± 6.4e-05 kPa | vapor or sublimation pressure (378.15 K): 0.000701 ± 6.5e-05 kPa and 0.000693 ± 6.5e-05 kPa and 0.000735 ± 6.5e-05 kPa | vapor or sublimation pressure (380.12 K): 0.000868 ± 6.7e-05 kPa and 0.000885 ± 6.8e-05 kPa and 0.000832 ± 6.7e-05 kPa | vapor or sublimation pressure (382.1 K): 0.001023 ± 9.4e-05 kPa and 0.001052 ± 9.6e-05 kPa and 0.001046 ± 9.6e-05 kPa

Reference: the NIST ThermoML archive (doi:10.1016/j.jct.2015.01.012)
